What was measured:
Assay in all cases: relative viability (nuclei count vs DMSO), 5 days (fraction); higher = more cells survive
[1] = compound: O=c1ncccn1[C@@H]1O[C@H](CO)[C@@H](O)[C@H]1O [Zebularine] + Nc1ncn([C@H]2C[C@H](O)[C@@H](CO)O2)c(=O)n1 [Decitabine] (partner 2 µM)
Outline: (§1)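 Nuclei were stained with Hoechst during a one-step fixation (final 0.05% Triton X-100, 1% formaldehyde, 1 ug/ml Hoechst) carried out 5 days after dosing, then counted on 4× images. The cells, lung cancer lines in 1536-well plates, had been dosed by pin tool the day after seeding with one drug alone or a fixed anchor-drug dose plus five library-drug doses (not always all listed) in √10 steps. Relative viability is the nuclei count in treated wells divided by that in vehicle wells, and each value is the median of duplicate plates.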

[2] = compound: O=c1ncccn1[C@@H]1O[C@H](CO)[C@@H](O)[C@H]1O [Zebularine] + COc1cccc2cc(-c3nc([C@H]4CC[C@H](C(=O)O)CC4)n4ncnc(N)c34)[nH]c12 [OSI-027] (partner 0.5 µM)
Outline: as §1

[3] = compound: O=c1ncccn1[C@@H]1O[C@H](CO)[C@@H](O)[C@H]1O [Zebularine] + O=C(c1cc(Cc2n[nH]c(=O)c3ccccc23)ccc1F)N1CCN(C(=O)C2CC2)CC1 [Olaparib] (partner 8 µM)
Outline: as §1

[4] = compound: CC(C)CCN1c2nc(Nc3cc(F)c(O)c(F)c3)ncc2N(C)C(=O)C1C [BI-D1870] + Nc1nc2[nH]cc(CCc3ccc(C(=O)N[C@@H](CCC(=O)O)C(=O)O)cc3)c2c(=O)[nH]1 [Pemetrexed] (partner 0.2 µM)
Outline: as §1

Row | Cell Line | relative viability ([1]; first compound 1 µM) | relative viability ([1]; first compound 3.162 µM) | relative viability ([1]; first compound 10 µM) | relative viability ([1]; first compound 31.62 µM) | relative viability ([1]; first compound 100 µM) | relative viability ([2]; first compound 1 µM) | relative viability ([2]; first compound 3.162 µM) | relative viability ([2]; first compound 10 µM) | relative viability ([2]; first compound 31.62 µM) | relative viability ([2]; first compound 100 µM) | relative viability ([3]; first compound 1 µM) | relative viability ([3]; first compound 3.162 µM) | relative viability ([3]; first compound 10 µM) | relative viability ([3]; first compound 31.62 µM) | relative viability ([3]; first compound 100 µM) | relative viability ([4]; first compound 0.04 µM) | relative viability ([4]; first compound 0.1265 µM) | relative viability ([4]; first compound 0.4 µM) | relative viability ([4]; first compound 1.265 µM) | relative viability ([4]; first compound 4 µM)
1 | HCC-44 | 0.981 | 0.929 | 0.946 | 1.03 | 0.585 | 0.627 | 0.462 | 0.435 | 0.398 | 0.364 | 0.974 | 0.971 | 0.762 | 0.825 | 0.39 | 0.653 | 0.631 | 0.632 | 0.75 | 0.689
2 | HCC-827 | 0.42 | 0.353 | 0.259 | 0.259 | 0.346 | 1.06 | 0.779 | 0.675 | 0.609 | 0.366 | 0.752 | 0.607 | 0.487 | 0.415 | 0.252 | 0.184 | 0.31 | 0.241 | 0.254 | 0.141
3 | NCI-H1623 | – | – | – | – | – | 0.428 | 0.397 | 0.407 | 0.561 | 0.411 | – | – | – | – | – | – | – | – | – | –
4 | NCI-H2347 | 0.658 | 0.598 | 0.544 | 0.575 | 0.371 | 0.444 | 0.412 | 0.443 | 0.424 | 0.393 | 0.565 | 0.566 | 0.531 | 0.385 | 0.358 | 0.515 | 0.443 | 0.427 | 0.438 | 0.393
5 | PC-14 | 0.193 | 0.135 | 0.117 | 0.0981 | 0.0826 | 0.778 | 0.437 | 0.146 | 0.121 | 0.0877 | 0.179 | 0.121 | 0.208 | 0.136 | 0.122 | 0.124 | 0.129 | 0.141 | 0.133 | 0.124
6 | NCI-H1651 | 0.714 | 0.56 | 0.58 | 0.522 | 0.347 | 0.735 | 0.69 | 0.549 | 0.716 | 0.447 | 0.183 | 0.188 | 0.187 | 0.165 | 0.166 | 0.566 | 0.561 | 0.547 | 0.629 | 0.54
7 | HARA | 0.595 | 0.603 | 0.433 | 0.554 | 0.459 | 0.367 | – | – | 0.42 | 0.245 | 0.901 | 0.491 | 0.926 | 0.647 | 0.437 | 0.234 | 0.227 | 0.267 | 0.243 | 0.218
8 | NCI-H1650 | 0.347 | 0.305 | 0.335 | 0.378 | 0.269 | 0.842 | 0.663 | 0.285 | 0.834 | 0.416 | 0.731 | 0.642 | 0.634 | 0.912 | 0.39 | 0.405 | 0.358 | 0.338 | 0.427 | 0.373
9 | NCI-H1395 | 0.678 | 0.755 | 0.82 | 0.709 | 0.623 | 0.65 | 0.58 | 0.553 | 0.531 | 0.429 | 0.465 | 0.47 | 0.558 | 0.438 | 0.448 | 0.882 | 0.735 | 0.848 | 0.95 | 0.86
10 | LU99A | 0.906 | 0.813 | 0.61 | 0.392 | 0.215 | 0.314 | 0.278 | 0.284 | 0.294 | 0.216 | 0.306 | 0.243 | 0.245 | 0.182 | 0.135 | 0.178 | 0.2 | 0.171 | 0.183 | 0.135
11 | NCI-H1355 | 0.34 | 0.329 | 0.334 | 0.314 | 0.28 | 0.435 | 0.388 | 0.357 | 0.494 | 0.381 | 0.625 | 0.426 | 0.375 | 0.28 | 0.272 | 1.04 | 0.998 | 1.03 | 1.15 | 0.963
12 | HCC-78 | 0.732 | 0.643 | – | 0.663 | 0.449 | 0.394 | 0.381 | 0.305 | 0.366 | 0.401 | 0.76 | 0.652 | – | 0.444 | 0.291 | 1.06 | 0.889 | 0.947 | 0.916 | 0.919
13 | NCI-H1563 | – | – | – | – | – | 0.81 | 0.776 | 0.572 | 0.89 | 0.76 | – | – | – | – | – | 0.869 | 0.793 | 0.776 | 0.776 | 0.841
14 | HCC-15 | 0.683 | 0.575 | 0.36 | 0.684 | 0.487 | 0.85 | 0.587 | 0.457 | 0.537 | 0.27 | 0.864 | 0.652 | 0.465 | 0.371 | 0.307 | 0.222 | 0.23 | 0.229 | 0.215 | 0.187

Reference: the supplement of paper PMC10307832
